# Measured values taken from patent US11427548B2 (Arvinas Operations, Inc., priority 2015, dated 2022).
# Read-outs that look alike come from different tables or passages of the source.
# Molecular target: T1, Androgen Receptor (Homo sapiens, UniProt P10275)
# T1 construct: endogenous in cells; host or cells: VCaP cells
# T1 sequence (P10275 1-920): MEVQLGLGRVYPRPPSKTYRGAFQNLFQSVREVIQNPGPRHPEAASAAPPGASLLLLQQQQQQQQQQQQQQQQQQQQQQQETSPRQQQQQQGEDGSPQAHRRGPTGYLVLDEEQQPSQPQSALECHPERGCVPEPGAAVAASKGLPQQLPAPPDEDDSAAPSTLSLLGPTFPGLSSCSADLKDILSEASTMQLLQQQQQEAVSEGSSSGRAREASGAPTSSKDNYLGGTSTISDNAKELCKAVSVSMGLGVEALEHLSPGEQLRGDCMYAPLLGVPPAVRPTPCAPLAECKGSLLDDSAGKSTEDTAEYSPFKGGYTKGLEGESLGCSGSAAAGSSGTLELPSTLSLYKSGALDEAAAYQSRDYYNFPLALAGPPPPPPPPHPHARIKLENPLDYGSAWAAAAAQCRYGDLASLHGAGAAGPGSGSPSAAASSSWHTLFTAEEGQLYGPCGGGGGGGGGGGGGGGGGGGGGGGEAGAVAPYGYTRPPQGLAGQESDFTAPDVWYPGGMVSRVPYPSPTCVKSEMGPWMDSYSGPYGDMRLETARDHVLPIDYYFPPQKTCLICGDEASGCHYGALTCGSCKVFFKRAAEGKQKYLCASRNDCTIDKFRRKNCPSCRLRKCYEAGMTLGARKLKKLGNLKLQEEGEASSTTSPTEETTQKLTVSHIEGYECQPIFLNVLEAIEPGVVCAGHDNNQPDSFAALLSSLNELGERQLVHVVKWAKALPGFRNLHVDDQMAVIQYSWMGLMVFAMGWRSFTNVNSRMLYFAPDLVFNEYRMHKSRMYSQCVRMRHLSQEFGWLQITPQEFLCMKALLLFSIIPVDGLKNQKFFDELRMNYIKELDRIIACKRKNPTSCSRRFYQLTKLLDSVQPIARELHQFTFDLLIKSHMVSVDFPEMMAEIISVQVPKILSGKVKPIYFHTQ
# Assay: Androgen Receptor ELISA assay (PathScan AR ELISA) in VCaP cells: AR degradation, Dmax and DC50
# Type: cell-based
# Description: 1. Androgen Receptor ELISA Assay.
# The protocols used with VCaP cells are described below. The androgen receptor ELISA assay was performed using PathScan AR ELISA (Cell Signaling Catalog #12850) according to the following assay steps:
# VCaP cells are seeded at 30,000 cells/well at a volume of 200 μL/well in VCaP assay medium [Phenol red free RPMI (Gibco Cat #11835-030); 5% Charcoal Stripped (Dextran treated) FBS (Omega Scientific, Cat #FB-04); Pen/Strep Life Technologies (Gibco Cat #: 10378-016); 0.1 nM R1881 (Sigma, Cat #R0908) is added upon the start of the assay, not during initial plating of the cells) in Corning 3904 plates. The cells are grown for a minimum of 3 days.
# First, cells are dosed with compounds diluted in 0.1% DMSO—use a polypropylene plate according to the following protocol: (1)(i) make 1000× stock plate in DMSO; (ii) 20 mM stock diluted 1/6.7 with DMSO (5 μL+28.3 μL DMSO)=3 mM into row H; (iii) perform serial dilutions in ½ log doses (10 μL of PROTAC+20 μL DMSO) from row H towards row B. Reserve row A for DMSO; (iv) 7 doses total (final concentration in this 1000× plate will be 3 mM, 1 mM, 333 μM, 111 μM, etc). (2)(i) Make 10× stock plate in media; (ii) transfer 2.5 μL of the 1000× stock to a new 10× stock plate (use 12 channel pipet, start at A (DMSO control) work thru H. When 247.5 μL of media is added to this plate, it will serve as a 10× stock; (iii) make media+1 nM R1881 for making 10× stock plate; (iv) add 247.5 μL of media with 1 nM R1881 to each well of the 10× stock plate, mix.
# Then 22 μL of 10× stock is added to cells and incubated for 24 h. 1× Cell Signaling Cell lysis buffer is made (Catalogue #9803; comes with the kit)—prepare for 50 μL/well. Keep on ice. Media is aspirated, and 50 μL 1× cell lysis buffer/well is added. The cells are placed on ice for 10 minutes. The solution is mixed and transferred to PCR plate, and centrifuged at 4C for 10 minutes at 4000 rpm.
# 5 μL is transferred to fresh plate (use immediately or freeze −80 C); 115 μL ELISA Dilutant is added (0.15 ug/ml-0.075 ug/ml; comes with the PathScan ELISA).
# Add 100 μL/well AR Elisa; cover and shake, 37 C for 2 hrs; dump, tap, wash 4×200 μL ELISA wash buffer; add 100 μL/well mouse AR detection Ab; cover and shake, 37 C for 1 hr; dump, tap, wash 4×200 μL ELISA wash buffer; add 100 μL/well anti-mouse—HRP conjugated Ab (comes with the kit); cover and shake, 37 C for 30 min; allow TMB reagent to come to room temperature; dump, tap, wash 4×200 μL Elisa wash buffer; tap; add 100 μL TMB, shake 5 min—while watching color. Add the stop reagent when light blue color develops. Add 100 μL Stop solution; shake and read at 450 nm.
# [1] = read-out: VCaP DC50; VCaP cells; Table 36
# [2] = VCaP cells; Table 36; read-out: VCaP DC50
# [3] = VCaP, VCaP cells; Table 36; read-out: VCaP Dmax (%)
compound,measurement,setting,value
Cc1ncsc1-c1ccc([C@H](C)NC(=O)[C@@H]2C[C@@H](O)CN2C(=O)[C@H](C(C)C)n2cc(-c3ccnc(N4CC[C@H](Oc5ccc(N6C(=S)N(c7ccc(C#N)c(C(F)(F)F)c7)C(=O)C6(C)C)cc5)C4)c3)cn2)cc1 [Example 609],Dmax,"VCaP, read-out: VCaP Dmax (%)",< 25%
same,DC50,[1],> 501 nM
"CC(C)(C)[C@H](NC(=O)COCCN1CCN(c2ccc(C(=O)N[C@H]3C(C)(C)[C@H](Oc4ccc(C#N)c(Cl)c4)C3(C)C)cn2)CC1)C(=O)N1C[C@H](O)C[C@H]1C(=O)NCc1ccc(C2CCC2)cc1 [Example 758, N-((1r,3r)-3-(3-chloro-4-cyanophenoxy)-2,2,4,4-tetramethylcyclobutyl)-6-(4-(2-(2-(((S)-1-((2S,4R)-2-((4-cyclobutylbenzyl)carbam-oyl)-4-hydroxypyrrolidin-1-yl)-3,3-dimethyl-1-oxobutan-2-yl)amino)-2-oxoethoxy)ethyl)pipera-zin-1-yl)nicotinamide]",DC50,[2],> 501 nM
same,Dmax,[3],< 25%
"CC(C)[C@H](C(=O)N1C[C@H](O)C[C@H]1C(=O)NCc1ccc(C#N)cc1)N1Cc2ccc(N3CCN(CCCc4ccc(C(=O)N[C@H]5C(C)(C)[C@H](Oc6ccc(C#N)c(C(F)(F)F)c6)C5(C)C)cc4)CC3)cc2C1=O [Example 771, (2S,4R)-1-((R)-2-(6-(4-(3-(4-(((1r,3r)-3-(4-cyano-3-(trifluoromethyl)phenoxy)-2,2,4,4-tetramethylcyclobutyl)carbamoyl)phenyl)propyl)piperazin-1-yl)-1-oxoisoindolin-2-yl)-3-methylbutanoyl)-N-(4-cyanobenzyl)-4-hydroxypyrrolidine-2-carboxamide]",DC50,[2],> 501 nM
same,Dmax,[3],< 25%
"COc1cc(N2C(=O)C(C)(C)N(c3ccc(OCCCCOCCCOCC(=O)N[C@H](C(=O)N4C[C@H](O)C[C@H]4C(=O)NCc4ccc(-c5cnco5)cc4)C(C)(C)C)c(F)c3)C2=S)ccc1C#N [Example 49, (2S,4R)-1-[(2S)-2-{2-[3-(4-{4-[3-(4-cyano-3-methoxyphenyl)-5,5-dimethyl-4-oxo-2-sulfanylideneimidazolidin-1-yl]-2-fluorophenoxy}butoxy)propoxy]acetamido}-3,3-dimethylbutanoyl]-4-hydroxy-N-{[4-(1,3-oxazol-5-yl)phenyl]methyl}pyrrolidine-2-carboxamide]",Dmax,"VCaP, highest percentage of Androgen Receptor degradation observed, VCaP cells; read-out: VCaP Dmax (%)",51 to 70%
same,DC50,"concentration that caused 50% Androgen Receptor degradation, VCaP cells; read-out: VCaP DC50",< 50 nM
Cc1ncsc1-c1ccc([C@H](C)NC(=O)[C@@H]2C[C@@H](O)CN2C(=O)[C@@H](NC(=O)COc2ccc(O[C@H]3CC[C@H](Oc4ccc(N5C(=S)N(c6ccc(C#N)c(C(F)(F)F)c6)C(=O)C5(C)C)cc4)CC3)nc2)C(C)(C)C)cc1 (racemic) [Example 421],Dmax,"VCaP, read-out: VCaP Dmax (%)",26 to 50%
same,DC50,read-out: VCaP DC50; VCaP cells; Table 35,51 to 500 nM
"Cc1ncsc1-c1ccc([C@H](C)NC(=O)[C@@H]2C[C@@H](O)CN2C(=O)[C@@H](NC(=O)CN2CC3CCC(C2)N3CCCc2ccc(C(=O)NC3C(C)(C)C(Oc4ccc(C#N)c(Cl)c4)C3(C)C)cc2)C(C)(C)C)cc1 (stereo partly drawn) [Example 808, (2S,4R)-1-((2S)-2-(2-(8-(3-(4-(((1r,3r)-3-(3-chloro-4-cyanophenoxy)-2,2,4,4-tetramethylcyclobutyl)carbamoyl)phenyl)propyl)-3,8-diazabicyclo[3.2.1]octan-3-yl)acetamido)-3,3-dimethylbutanoyl)-4-hydroxy-N-((S)-1-(4-(4-methylthiazol-5-yl)phenyl)ethyl)pyrrolidine-2-carboxamide]",Dmax,"VCaP, read-out: VCaP Dmax (%)",26 to 50%
same,DC50,[1],< 50 nM
CC(C)(C)[C@H](NC(=O)COCCCCOc1ccc(C(=O)N[C@H]2C(C)(C)[C@H](Oc3ccc(C#N)c(Cl)c3)C2(C)C)cc1)C(=O)N1C[C@H](O)C[C@H]1C(=O)NCc1ccc(-n2cccn2)cc1 [Example 568],DC50,VCaP cells; Table 35; read-out: VCaP DC50,< 50 nM
same,Dmax,"VCaP, VCaP cells; Table 35; read-out: VCaP Dmax (%)",> 71%
"Cc1ncsc1-c1ccc(C(C)NC(=O)C2CC(O)CN2C(=O)C(NC(=O)CN2CCOCCOCCN(c3ccc(C(=O)NC4C(C)(C)C(Oc5ccc(C#N)c(Cl)c5)C4(C)C)cc3)CCOCCOCC2)C(C)(C)C)cc1 [Example 694, (2S,4R)-1-((S)-2-(2-(16-(4-(((1r,3r)-3-(3-chloro-4-cyanophenoxy)-2,2,4,4-tetramethylcyclobutyl)carbamoyl)phenyl)-1,4,10,13-tetraoxa-7,16-diazacyclooctadecan-7-yl)acetamido)-3,3-dimethylbutanoyl)-4-hydroxy-N-((S)-1-(4-(4-methylthiazol-5-yl)phenyl)ethyl)pyrrolidine-2-carboxamide]",DC50,[2],< 50 nM
same,Dmax,"VCaP, read-out: VCaP Dmax (%), VCaP cells; Table 36",51 to 70%
Cc1ncsc1-c1ccc(CNC(=O)[C@@H]2C[C@@H](O)CN2C(=O)[C@@H](NC(=O)COc2ccccc2CCCOc2ccc(C(=O)N[C@H]3C(C)(C)[C@H](Oc4ccc(C#N)c(Cl)c4)C3(C)C)cc2)C(C)(C)C)cc1 [Example 417],DC50,VCaP cells; Table 34; read-out: VCaP DC50,< 50 nM
same,Dmax,"VCaP, VCaP cells; Table 34; read-out: VCaP Dmax (%)",> 71%
"CO[C@@H]1C[C@@H](C(=O)N[C@@H](C)c2ccc(-c3scnc3C)cc2)N(C(=O)[C@@H](NC(=O)CN2CCN(CCCc3ccc(C(=O)N[C@H]4C(C)(C)[C@H](Oc5ccc(C#N)c(C(F)(F)F)c5)C4(C)C)cc3)CC2)C(C)(C)C)C1 [Example 708, (2S,4R)-1-((S)-2-(2-(4-(3-(4-(((1r,3r)-3-(4-cyano-3-(trifluoromethyl)phenoxy)-2,2,4,4-tetramethylcyclobutyl)carbamoyl)phenyl)propyl)piperazin-1-yl)acetamido)-3,3-dimethylbutanoyl)-4-methoxy-N-((S)-1-(4-(4-methylthiazol-5-yl)phenyl)ethyl)pyrrolidine-2-carboxamide]",DC50,[2],> 501 nM
same,Dmax,"VCaP, read-out: VCaP Dmax (%)",< 25%
"Cc1ncsc1-c1ccc([C@H](C)NC(=O)[C@@H]2C[C@@H](O)CN2C(=O)[C@@H](NC(=O)CN2CCN(CC3CCN(c4ccc(C(=O)N[C@H]5C(C)(C)[C@H](Oc6ccc(C#N)c(Cl)c6)C5(C)C)cn4)CC3)CC2)C(C)(C)C)cc1 [Example 853, N-((1r,3r)-3-(3-chloro-4-cyanophenoxy)-2,2,4,4-tetramethylcyclobutyl)-6-(4-((4-(2-(((S)-1-((2S,4R)-4-hydroxy-2-(((S)-1-(4-(4-methylthiazol-5-yl)phenyl)ethyl)carbamoyl)pyrrolidin-1-yl)-3,3-dimethyl-1-oxobutan-2-yl)amino)-2-oxoethyl)piperazin-1-yl)methyl)piperidin-1-yl) nicotinamide]",DC50,[2],< 50 nM
same,Dmax,"VCaP, read-out: VCaP Dmax (%)",> 71%
